According to paper PMC8869358, “High-Throughput Chemical Screening and Structure-Based Models to Predict hERG Inhibition” (Biology, 2022):
Counter-ions that a name gives are not always drawn.

Biological target: hERG (Homo sapiens, UniProt Q12809)
Experiment: cell-based
Conditions: (-LOG10(IC50), µM)

Sequence of hERG (Q12809 whole entry): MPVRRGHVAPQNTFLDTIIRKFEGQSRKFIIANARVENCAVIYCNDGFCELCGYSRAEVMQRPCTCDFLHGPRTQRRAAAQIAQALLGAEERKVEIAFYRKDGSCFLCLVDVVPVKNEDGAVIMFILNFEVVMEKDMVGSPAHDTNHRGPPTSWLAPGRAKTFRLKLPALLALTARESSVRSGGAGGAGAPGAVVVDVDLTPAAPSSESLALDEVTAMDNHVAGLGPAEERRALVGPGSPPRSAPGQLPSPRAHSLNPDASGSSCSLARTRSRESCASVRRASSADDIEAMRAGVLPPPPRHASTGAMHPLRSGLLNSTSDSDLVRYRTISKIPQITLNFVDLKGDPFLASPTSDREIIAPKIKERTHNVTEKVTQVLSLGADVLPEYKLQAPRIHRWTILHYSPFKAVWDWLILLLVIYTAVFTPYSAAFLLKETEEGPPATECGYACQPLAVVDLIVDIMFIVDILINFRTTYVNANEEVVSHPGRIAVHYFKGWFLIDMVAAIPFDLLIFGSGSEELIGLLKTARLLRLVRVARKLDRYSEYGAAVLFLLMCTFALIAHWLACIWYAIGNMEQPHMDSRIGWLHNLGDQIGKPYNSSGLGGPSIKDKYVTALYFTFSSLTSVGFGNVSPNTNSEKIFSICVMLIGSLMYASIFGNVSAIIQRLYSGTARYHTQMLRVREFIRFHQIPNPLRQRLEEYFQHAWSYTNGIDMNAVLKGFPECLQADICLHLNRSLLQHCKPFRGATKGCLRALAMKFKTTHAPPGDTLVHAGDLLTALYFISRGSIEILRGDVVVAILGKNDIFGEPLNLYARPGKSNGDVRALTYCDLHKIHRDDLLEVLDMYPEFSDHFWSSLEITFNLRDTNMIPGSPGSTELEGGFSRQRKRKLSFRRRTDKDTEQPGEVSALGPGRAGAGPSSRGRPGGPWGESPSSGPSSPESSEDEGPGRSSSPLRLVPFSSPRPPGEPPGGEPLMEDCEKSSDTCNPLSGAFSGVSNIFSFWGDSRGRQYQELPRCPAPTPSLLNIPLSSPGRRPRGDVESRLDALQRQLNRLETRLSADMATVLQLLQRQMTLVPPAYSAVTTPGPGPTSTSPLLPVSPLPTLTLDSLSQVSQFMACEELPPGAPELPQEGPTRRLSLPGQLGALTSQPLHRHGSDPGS

Compound	IC50 [µM]
CCC(OC(C)=O)C(C[C@H](C)NC)(c1ccccc1)c1ccccc1 (mixture of isomers) [L-Î±lpha-Noracetylmethadol hydrochloride]	7.53
COC(=O)C(C)Oc1ccc(Oc2ccc(Cl)cc2Cl)cc1 (racemic) [(+-)-Diclofop-methyl]	46.2
COC(=O)C1=C(C)NC(C)=C(C(=O)OCCCN2CCC(c3ccccc3)(c3ccccc3)CC2)C1c1cccc([N+](=O)[O-])c1 (racemic) [(+/-) -Niguldipine hydrochloride (1:x)]	1.25
CC(CCc1ccc(O)cc1)NCCc1ccc(O)c(O)c1 (racemic) [DL-Dobutamine]	16.9
COC(=O)C1=C(C)NC(C)=C(C(=O)O[C@@H]2CCCN(Cc3ccccc3)C2)[C@@H]1c1cccc([N+](=O)[O-])c1 (racemic) [rac Benidipine hydrochloride]	12.5
O[C@@H](CNC[C@H](O)[C@H]1CCc2cc(F)ccc2O1)[C@@H]1CCc2cc(F)ccc2O1 (racemic) [rac Nebivolol hydrochloride]	2.49
N#CC1(N=NC2(C#N)CCCCC2)CCCCC1 [1,1'-Diazene-1,2-diyldicyclohexanecarbonitrile]	43.6
O=[N+]([O-])c1ccc(Oc2ccc([N+](=O)[O-])cc2)cc1 [1,1'-Oxybis(4-nitrobenzene)]	32.8
C=C(C)C(=O)OCC(CC)(COC(=O)C(=C)C)COC(=O)C(=C)C [1,1,1-Trimethylolpropane trimethacrylate]	30.2
Cc1c([N+](=O)[O-])cc2c(c1[N+](=O)[O-])C(C)(C)CC2(C)C [1,1,3,3,5-Pentamethyl-4,6-dinitro-2,3-dihydro-1H-indene]	16.7
BrC1CCC(Br)C(Br)CCC(Br)C(Br)CCC1Br (centres unmarked) [1,2,5,6,9,10-Hexabromocyclododecane]	19.2
N#CCCC(Br)(C#N)CBr (centres unmarked) [1,2-Dibromo-2,4-dicyanobutane]	36.7
BrCC(Br)C1CCC(Br)C(Br)C1 (centres unmarked) [1,2-Dibromo-4-(1,2-dibromoethyl)cyclohexane]	34.5
Clc1cc(Cl)c2c(c1)N=C1CCCCCN1C2 [1,3-Dichloro-6,7,8,9,10,12-hexahydroazepino[2,1-b]quinazoline hydrochloride (1:1)]	12.5
CCCCCCCCCCn1cc[n+](CCCCCCCCCC)c1C [1,3-Didecyl-2-methylimidazolium chloride]	0.51
Nc1ccc(C(=O)OCCCOC(=O)c2ccc(N)cc2)cc1 [1,3-Propanediol, bis(4-aminobenzoate)]	12.3
ClC(Cl)(Cl)c1ccc(C(Cl)(Cl)Cl)cc1 [1,4-Bis(trichloromethyl)benzene]	14.2
Clc1cnc(Oc2ccc(Oc3ncc(Cl)cc3Cl)cc2)c(Cl)c1 [1,4-Bis[2-(3,5-dichloropyridyloxy)]benzene]	17.4
O=C1C=CC(=O)c2ccccc21 [1,4-Naphthoquinone]	21
O=C1Cc2ccccc2N1c1c(Cl)cccc1Cl [1-(2,6-Dichlorophenyl)-2-indolinone]	21.9
Clc1ccc(C(c2ccccc2Cl)C(Cl)Cl)cc1 (centres unmarked) [1-(2-Chlorophenyl)-1-(4-chlorophenyl)-2,2-dichloroethane]	21.9
CC(=O)OC1(c2ccccc2)CCN(CCc2ccccc2)CC1 [1-(2-Phenylethyl)-4-phenyl-4-acetoxypiperidine]	22.4
ClCCCN1CCN(c2cccc(Cl)c2)CC1 [1-(3-Chlorophenyl)-4-(3-chloropropyl)piperazine hydrochloride]	10.1
CC(C)(C)C(=O)C=Cc1ccc(Cl)cc1 [1-(4-Chlorophenyl)-4,4-dimethylpent-1-en-3-one]	43.6
COc1ccc(C(=O)CC(=O)c2ccc(C(C)(C)C)cc2)cc1 [1-(4-tert-Butylphenyl)-3-(4-methoxyphenyl)propane-1,3-dione]	21.3

Compound	IC50 [µM]
Fc1ccc(C(c2ccc(F)cc2)N2CCNCC2)cc1 [1-(Bis(4-fluorophenyl)methyl)piperazine]	19.7
CCCC[n+]1ccc(C)cc1 [1-Butyl-4-methylpyridinium chloride]	43.4
CCCCCCCCCCn1cc[n+](C)c1 [1-Decyl-3-methylimidazolium bromide]	15
CCCCCCCCCCn1cc[n+](C)c1 [1-Decyl-3-methylimidazolium chloride]	16.7
CCCCCCCCCCn1cc[n+](C)c1 [1-Decyl-3-methylimidazolium hexafluorophosphate]	8.37
CCCCCCCCCCn1cc[n+](C)c1 [1-Decyl-3-methylimidazolium trifluoromethanesulfonate]	13.6
CCCCCCCCCCCCn1cc[n+](C)c1 [1-Dodecyl-3-methylimidazolium chloride]	2.87
CCCCCCCCCCCCn1cc[n+](C)c1 [1-Dodecyl-3-methylimidazolium hexafluorophosphate]	4.2
CCCCCCCCCCCCn1cc[n+](C)c1 [1-Dodecyl-3-methylimidazolium iodide]	10.6
CCCCCCCCCCCCn1cc[n+](C)c1 [1-Dodecyl-3-methylimidazolium tetrafluoroborate]	4.04
CCCCCCCCCCCCn1cc[n+](C)c1 [1-Dodecyl-3-methylimidazolium trifluoromethanesulfonate]	4.61
CC[N+]1(C)CCCC1 [1-Ethyl-1-methylpyrrolidinium iodide]	19.5
CCCCCCCCCCCCCCCCn1cc[n+](C)c1 [1-Hexadecyl-3-methylimidazolium chloride]	14.1
CCCCCCCCCCCCCCCCn1cc[n+](C)c1 [1-Hexadecyl-3-methylimidazolium tetrafluoroborate]	9.86
CCCCCC[n+]1ccn(C)c1.O=S(=O)([N-]S(=O)(=O)C(F)(F)F)C(F)(F)F [1-Hexyl-3-methylimidazolium bis(trifluoromethylsulfonyl)imide]	45.4
CCCCCCn1cc[n+](C)c1 [1-Hexyl-3-methylimidazolium tetrafluoroborate]	60.6
CCCCCCCCCCCCCCCCCC[n+]1ccn(C)c1 [1-Methyl-3-octadecylimidazolium hexafluorophosphate]	4.02
CCCCCCCC[n+]1ccn(C)c1 [1-Methyl-3-octylimidazolium chloride]	19.4
CCCCCCCC[n+]1ccn(C)c1 [1-Methyl-3-octylimidazolium hexafluorophosphate]	17.6
CCCCCCCC[n+]1ccn(C)c1 [1-Methyl-3-octylimidazolium trifluoromethanesulfonate]	21.2
Cc1cccc(Oc2ccccc2)c1 [1-Methyl-3-phenoxybenzene]	23.9
CCCCCCCCCCCCCCn1cc[n+](C)c1 [1-Methyl-3-tetradecylimidazolium chloride]	8.62
CCCCCCOc1cc(C)c(O)c(C)c1C [1-O-Hexyl-2,3,5-trimethylhydroquinone]	31.3
O=C1C=CC(=O)N1c1ccccc1 [1-Phenyl-1H-pyrrole-2,5-dione]	50.9
CCCCCCCCCCCCCCN(CCO)CCO [2,2'-(Tetradecylimino)diethanol]	16.1

Compound	IC50 [µM]
Clc1ccccc1-c1ccccc1Cl [2,2'-Dichlorobiphenyl]	17.6
Cc1cc(Cc2cc(C)cc(C(C)(C)C)c2O)c(O)c(C(C)(C)C)c1 [2,2'-Methylenebis(4-methyl-6-tert-butylphenol)]	31.1
CCc1cc(Cc2cc(CC)cc(C(C)(C)C)c2O)c(O)c(C(C)(C)C)c1 [2,2'-Methylenebis(ethyl-6-tert-butylphenol)]	17.4
CC(C)C(OC(=O)c1ccccc1)C(C)(C)COC(=O)c1ccccc1 (centres unmarked) [2,2,4-Trimethylpentane-1,3-diyl dibenzoate]	21.9
OCC(c1ccc(Cl)cc1)c1ccc(Cl)cc1 [2,2-Bis(4-chlorophenyl)ethanol]	49
Oc1ccc(C(c2ccc(O)cc2)C(Cl)(Cl)Cl)cc1 [2,2-Bis(4-hydroxyphenyl)-1,1,1-trichloroethane]	54.9
CCC(COC(=O)CCS)(COC(=O)CCS)COC(=O)CCS [2,2-Bis{[(3-sulfanylpropanoyl)oxy]methyl}butyl 3-sulfanylpropanoate]	38.9
O=C(c1ccccc1)C(Cl)Cl [2,2-Dichloro-1-phenylethanone]	36
Clc1nc(C(Cl)(Cl)Cl)c(Cl)c(Cl)c1Cl [2,3,4,5-Tetrachloro-6-(trichloromethyl)pyridine]	49
CCCCOCCOC(=O)COc1cc(Cl)c(Cl)cc1Cl [2,4,5-T-butotyl]	23.2
CC(C)(C)c1cc(C(C)(C)C)c(O)c(C(C)(C)C)c1 [2,4,6-Tris(tert-butyl)phenol]	17.4
CC(C)(c1ccccc1)c1ccc(O)c(C(C)(C)c2ccccc2)c1 [2,4-Bis(1-methyl-1-phenylethyl)phenol]	21.7
CC(C)COC(=O)COc1ccc(Cl)cc1Cl [2,4-D-isobutyl]	43.6
O=[N+]([O-])c1cc(C(F)(F)F)c(Cl)c([N+](=O)[O-])c1Cl [2,4-Dichloro-1,3-dinitro-5-(trifluoromethyl)benzene]	34.7
O=S(=O)(Oc1ccc(Cl)cc1Cl)c1ccccc1 [2,4-Dichlorophenyl benzenesulfonate]	51.8
CCc1cc(C(C)(C)C)c(O)c(C(C)(C)C)c1 [2,6-Di-tert-butyl-4-ethylphenol]	19.5
COc1cc(C(C)(C)C)c(O)c(C(C)(C)C)c1 [2,6-Di-tert-butyl-4-methoxyphenol]	38.9
CC(C)(C)c1cc([N+](=O)[O-])cc(C(C)(C)C)c1O [2,6-Di-tert-butyl-4-nitrophenol]	38.9
CC(C)(C)c1cccc(C(C)(C)C)c1O [2,6-Di-tert-butylphenol]	19.8
CC(C)(C)C1(CCc2ccc(Cl)cc2)CO1 (centres unmarked) [2-(2-(4-Chlorophenyl)ethyl)-2-(1,1-dimethylethyl)oxirane]	23.2
Cc1ccc(O)c(-n2nc3ccccc3n2)c1 [2-(2H-Benzotriazol-2-yl)-4-methylphenol]	36
CCCCCCCCC=CCCCCCCCC1=NCCN1CCO [2-(8-Heptadecenyl)-2-imidazoline-1-ethanol]	11.8
Nc1ccc(Cl)cc1C(=O)c1ccccc1 [2-Amino-5-chlorobenzophenone]	50.9
CCOc1ccc2nc(N)sc2c1 [2-Amino-6-ethoxybenzothiazole]	43.3
